Experimental data as given in patent US11339171B2, “MDM2 inhibitors” (Gan & Lee Pharmaceuticals, priority 2017, dated 2022).

Tests used:
MDM2 = target: T1, MDM2 (Homo sapiens, UniProt Q00987); test: Inhibition test of MDM2-P53 (GST-MDM2, Biotin-P53, Anti-GST-Tb, SA-XL665); assay type: binding
T1 construct: made in house
Summary of the method: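 Compounds, serially diluted 5-fold (twelve concentrations), were shaken for 90 min at 25° C with a mix of GST-MDM2 (4 nM final), Biotin-P53, anti-GST-Tb and SA-XL665. Buffer: 1×PBS, 0.1% BSA, 5 mM DTT, 1 mM AEBSF; signal read on a microplate reader.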

[1] = system: human osteosarcoma cell line SJSA-1; test: Inhibition of proliferation of human osteosarcoma cell line SJSA-1 (DAPI staining, In Cell Analyzer); settings: Homo sapiens, SJSA-1, 72 h, read-out: IC50 (nM), inhibitory activity on proliferation of human osteosarcoma cell line SJSA-1, SJSA-1, incubated 72 h

T1 sequence (Q00987 whole entry): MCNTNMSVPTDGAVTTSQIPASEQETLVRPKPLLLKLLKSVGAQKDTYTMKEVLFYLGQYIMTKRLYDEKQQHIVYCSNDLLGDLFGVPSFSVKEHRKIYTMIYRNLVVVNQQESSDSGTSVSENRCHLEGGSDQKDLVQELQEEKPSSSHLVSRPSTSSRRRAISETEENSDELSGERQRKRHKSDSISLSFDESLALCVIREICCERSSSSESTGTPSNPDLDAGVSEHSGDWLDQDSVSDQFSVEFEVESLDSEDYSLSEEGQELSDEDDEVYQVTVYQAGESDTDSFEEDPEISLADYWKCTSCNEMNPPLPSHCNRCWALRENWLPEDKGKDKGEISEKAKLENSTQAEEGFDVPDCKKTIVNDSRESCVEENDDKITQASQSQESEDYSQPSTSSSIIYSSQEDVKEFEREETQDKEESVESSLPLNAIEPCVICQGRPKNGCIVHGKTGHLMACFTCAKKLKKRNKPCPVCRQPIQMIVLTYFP

| Compound | IC50 (MDM2) [nM] | IC50 [1] [nM] |
| --- | --- | --- |
| COc1cc(N(C)C)c(C)cc1-c1nc2c(n1C(C)C)[C@]1(C(=O)Nc3cc(Cl)ccc31)N(c1cc(Cl)ccc1C)C2=O [Example R-91, (R)-6-chloro-5′-(5-chloro-2-methylphenyl)-2′-(4-(dimethylamino)-2-methoxy-5-methylphenyl)-3′-isopropyl-3′H-spiro[dihydroindole-3,4′-pyrrolo[3,4-d]imidazole]-2,6′(5′H)-dione] | 461 | 993 |
| COc1cc(OC)c(-c2nc3c(n2C(C)C)[C@]2(C(=O)Nc4cc(Cl)ccc42)N(c2cc(Cl)ccc2C)C3=O)cc1F [Example R-92, (R)-6-chloro-5′-(5-chloro-2-methylphenyl)-2′-(5-fluoro-2,4-dimethoxyphenyl)-3′-isopropyl-3′H-spiro[dihydroindole-3,4′-pyrrolo[3,4-d]imidazole]-2,6′(5′H)-dione] | 378 | 4880 |
| CCOc1ncc(-c2nc3c(n2C(C)C)[C@]2(C(=O)Nc4cc(Cl)ccc42)N(c2cc(Cl)ccc2F)C3=O)c(OC)n1 [Example R-97, (R)-6-chloro-5′-(5-chloro-2-fluorophenyl)-2′-(2-ethoxy-4-methoxypyrimidin-5-yl)-3′-isopropyl-3′H-spiro[dihydroindole-3,4′-pyrrolo[3,4-d]imidazole]-2,6′(5′H)-dione] | 5.73 | 396 |
| CCN(C)c1ccc(-c2nc3c(n2C(C)C)[C@]2(C(=O)Nc4cc(Cl)ccc42)N(c2cc(Cl)ccc2C)C3=O)c(OC)c1 [Example R-99, (R)-6-chloro-5′-(5-chloro-2-methylphenyl)-2′-(4-(ethyl(methyl)amino)-2-methoxyphenyl)-3′-isopropyl-3′H-spiro[dihydroindole-3,4′-pyrrolo[3,4-d]imidazole]-2,6′(5′H)-dione] | 115 | 1470 |
| COc1cc(C2CC2)ncc1-c1nc2c(n1C(C)C)[C@]1(C(=O)Nc3cc(Cl)ccc31)N(c1cc(Cl)ccc1C)C2=O [Example R-103, (R)-6-chloro-5′-(5-chloro-2-methylphenyl)-2′-(6-cyclopropyl-4-methoxypyridin-3-yl)-3′-isopropyl-3′H-spiro[dihydroindole-3,4′-pyrrolo[3,4-d]imidazole]-2,6′(5′H)-dione] | 181 | 2430 |
| COc1cc(N(C)C)ccc1-c1nc2c(n1C(C)C)[C@]1(C(=O)Nc3cc(Cl)ccc31)N(c1cccc(Cl)c1)C2=O [Example R-104, (R)-6-chloro-5′-(3-chlorophenyl)-2′-(4-(dimethylamino)-2-methoxyphenyl)-3′-isopropyl-3′H-spiro[dihydroindole-3,4′-pyrrolo[3,4-d]imidazole]-2,6′(5′H)-dione] | 146 | 6890 |
| CCc1ccc(-c2nc3c(n2C(C)C)[C@]2(C(=O)Nc4cc(Cl)ccc42)N(c2cccc(Cl)c2)C3=O)c(OC)c1 [Example R-107, (R)-6-chloro-5′-(3-chlorophenyl)-2′-(4-ethyl-2-methoxyphenyl)-3′-isopropyl-3′H-spiro[dihydroindole-3,4′-pyrrolo[3,4-d]imidazole]-2,6′(5′H)-dione] | 536 | 3240 |
| COc1cc(C)ccc1-c1nc2c(n1C(C)C)[C@]1(C(=O)Nc3cc(Cl)ccc31)N(c1cccc(Cl)c1)C2=O [Example R-109, (R)-6-chloro-5′-(3-chlorophenyl)-3′-isopropyl-2′-(2-methoxy-4-methylphenyl)-3′H-spiro[dihydroindole-3,4′-pyrrolo[3,4-d]imidazole]-2,6′(5′H)-dione] | 381 | 8200 |
| COc1cc(N(C)C)ncc1-c1nc2c(n1C(C)C)[C@]1(C(=O)Nc3cc(Cl)ccc31)N(c1cc(Cl)ccc1C)C2=O [Example R-111, (R)-6-chloro-5′-(5-chloro-2-methylphenyl)-2′-(6-(dimethylamino)-4-methoxypyridin-3-yl)-3′-isopropyl-3′H-spiro[dihydroindole-3,4′-pyrrolo[3,4-d]imidazole]-2,6′ (5′H)-dione] | 110 | 561 |
| COc1cc(N(C)C)ncc1-c1nc2c(n1C(C)C)[C@]1(C(=O)Nc3cc(Cl)ccc31)N(c1cccc(Cl)c1)C2=O [Example R-113, (R)-6-chloro-5′-(3-chlorophenyl)-2′-(6-(dimethylamino)-4-methoxypyridin-3-yl)-3′-isopropyl-3′H-spiro[dihydroindole-3,4′-pyrrolo[3,4-d]imidazole]-2,6′(5′H)-dione] | 50.5 | 2170 |
| COc1cc(OC)c(-c2nc3c(n2C(C)C)[C@]2(C(=O)Nc4cc(Cl)ccc42)N(c2cccc(Cl)c2)C3=O)cn1 [Example R-115, (R)-6-chloro-5′-(3-chlorophenyl)-2′-(4,6-dimethoxypyridin-3-yl)-3′-isopropyl-3′H-spiro[dihydroindole-3,4′-pyrrolo[3,4-d]imidazole]-2,6′(5′H)-dione] | 269 | 26.9 |
| COc1nc(OC(C)C)ncc1-c1nc2c(n1C(C)C)[C@]1(C(=O)Nc3cc(Cl)ccc31)N(c1cc(Cl)ccc1C)C2=O [Example R-126, (R)-6-chloro-5′-(5-chloro-2-methylphenyl)-2′-(2-isopropoxy-4-methoxypyrimidin-5-yl)-3′-isopropyl-3′H-spiro[dihydroindole-3,4′-pyrrolo[3,4-d]imidazole]-2,6′(5′H)-dione] | 193 | 1590 |
| CCOc1ncc(-c2nc3c(n2C(C)C)[C@]2(C(=O)Nc4cc(Cl)ccc42)N(c2cc(Cl)ccc2C)C3=O)c(OC)n1 [Example R-127, (R)-6-chloro-5′-(5-chloro-2-methylphenyl)-2′-(2-ethoxy-4-methoxypyrimidin-5-yl)-3′-isopropyl-3′H-spiro[dihydroindole-3,4′-pyrrolo[3,4-d]imidazole]-2,6′(5′H)-dione] | 91 | 1570 |
| COc1nc(OCCF)ncc1-c1nc2c(n1C(C)C)[C@]1(C(=O)Nc3cc(Cl)ccc31)N(c1cc(Cl)ccc1C)C2=O [Example R-140, (R)-6-chloro-5′-(5-chloro-2-methylphenyl)-2′-(2-(2-fluoroethoxy)-4-methoxypyrimidin-5-yl)-3′-isopropyl-3′H-spiro[dihydroindole-3,4′-pyrrolo[3,4-d]imidazole]-2,6′(5′H)-dione] | 147 | 863 |
| COc1cc(C2CC2)ncc1-c1nc2c(n1C(C)C)[C@]1(C(=O)Nc3cc(Cl)ccc31)N(c1cc(Cl)cnc1C)C2=O [Example R-143, (R)-6-chloro-5′-(5-chloro-2-methylpyridin-3-yl)-2′-(6-cyclopropyl-4-methoxypyridin-3-yl)-3′-isopropyl-3′H-spiro[dihydroindole-3,4′-pyrrolo[3,4-d]imidazole]-2,6′(5′H)-dione] | 214 | 6220 |
| COc1cc(C(F)(F)F)ccc1-c1nc2c(n1C(C)C)[C@]1(C(=O)Nc3cc(Cl)ccc31)N(c1cc(Cl)cnc1C)C2=O [Example R-144, (R)-6-chloro-5′-(5-chloro-2-methylpyridin-3-yl)-3′-isopropyl-2′-(2-methoxy-4-(trifluoromethyl)phenyl)-3′H-spiro[dihydroindole-3,4′-pyrrolo[3,4-d]imidazole]-2,6′(5′H)-dione] | 119 | 2450 |
| COc1nc(OCC(F)F)ncc1-c1nc2c(n1C(C)C)[C@]1(C(=O)Nc3cc(Cl)ccc31)N(c1cc(Cl)ccc1C)C2=O [Example R-147, (R)-6-chloro-5′-(5-chloro-2-methylphenyl)-2′-(2-(2,2-difluoroethoxy)-4-methoxypyrimidin-5-yl)-3′-isopropyl-3′H-spiro[dihydroindole-3,4′-pyrrolo[3,4-d]imidazole]-2,6′(5′H)-dione] | 119 | 5740 |
| COc1cc(OC(F)F)ncc1-c1nc2c(n1C(C)C)[C@]1(C(=O)Nc3cc(Cl)ccc31)N(c1cc(Cl)ccc1C)C2=O [Example R-150, (R)-6-chloro-5′-(5-chloro-2-methylphenyl)-2′-(6-(difluoromethoxy)-4-methoxypyridin-3-yl)-3′-isopropyl-3′H-spiro[dihydroindole-3,4′-pyrrolo[3,4-d]imidazole]-2,6′(5′H)-dione] | 377 | 5700 |
| COc1cc(N(C)C)ncc1-c1nc2c(n1C(C)C)[C@]1(C(=O)Nc3cc(Cl)ccc31)N(c1cc(Cl)cnc1C)C2=O [Example R-155, (R)-6-chloro-5′-(5-chloro-2-methylpyridin-3-yl)-2′-(6-(dimethylamino)-4-methoxypyridin-3-yl)-3′-isopropyl-3′H-spiro[dihydroindole-3,4′-pyrrolo[3,4-d]imidazole]-2,6′(5′H)-dione] | 96.4 | 1520 |
| COc1nc(N(C)C)ccc1-c1nc2c(n1C(C)C)[C@]1(C(=O)Nc3cc(Cl)ccc31)N(c1cc(Cl)ccc1C)C2=O [Example R-157, (R)-6-chloro-5′-(5-chloro-2-methylphenyl)-2′-(6-(dimethylamino)-2-methoxypyridin-3-yl)-3′-isopropyl-3′H-spiro[dihydroindole-3,4′-pyrrolo[3,4-d]imidazole]-2,6′(5′H)-dione] | 370 | 1800 |
| COc1nc(C2CC2)ncc1-c1nc2c(n1C(C)C)[C@]1(C(=O)Nc3cc(Cl)ccc31)N(c1cc(Cl)cnc1C)C2=O [Example R-159, (R)-6-chloro-5′-(5-chloro-2-methylpyridin-3-yl)-2′-(2-cyclopropyl-4-methoxypyrimidin-5-yl)-3′-isopropyl-3′H-spiro[dihydroindole-3,4′-pyrrolo[3,4-d]imidazole]-2,6′(5′H)-dione] | 468 | 5330 |
| COc1cc(N(C)CCO)ccc1-c1nc2c(n1C(C)C)[C@]1(C(=O)Nc3cc(Cl)ccc31)N(c1cc(Cl)ccc1C)C2=O [Example R-162, (R)-6-chloro-5′-(5-chloro-2-methylphenyl)-2′-(4-((2-hydroxyethyl)(methyl)amino)-2-methoxyphenyl)-3′-isopropyl-3′H-spiro[dihydroindole-3,4′-pyrrolo[3,4-d]imidazole]-2,6′(5′H)-dione] | 120 | 782 |
